The values that follow come from ChEMBL document CHEMBL1134484, “Homology modeling using multiple molecular dynamics simulations and docking studies of the human androgen receptor ligand binding domain bound to testosterone and nonsteroidal ligands” (J Med Chem, 2001).

The target of test [1] is T1, Androgen receptor (Homo sapiens, UniProt P10275).
T1 sequence (P10275 whole entry): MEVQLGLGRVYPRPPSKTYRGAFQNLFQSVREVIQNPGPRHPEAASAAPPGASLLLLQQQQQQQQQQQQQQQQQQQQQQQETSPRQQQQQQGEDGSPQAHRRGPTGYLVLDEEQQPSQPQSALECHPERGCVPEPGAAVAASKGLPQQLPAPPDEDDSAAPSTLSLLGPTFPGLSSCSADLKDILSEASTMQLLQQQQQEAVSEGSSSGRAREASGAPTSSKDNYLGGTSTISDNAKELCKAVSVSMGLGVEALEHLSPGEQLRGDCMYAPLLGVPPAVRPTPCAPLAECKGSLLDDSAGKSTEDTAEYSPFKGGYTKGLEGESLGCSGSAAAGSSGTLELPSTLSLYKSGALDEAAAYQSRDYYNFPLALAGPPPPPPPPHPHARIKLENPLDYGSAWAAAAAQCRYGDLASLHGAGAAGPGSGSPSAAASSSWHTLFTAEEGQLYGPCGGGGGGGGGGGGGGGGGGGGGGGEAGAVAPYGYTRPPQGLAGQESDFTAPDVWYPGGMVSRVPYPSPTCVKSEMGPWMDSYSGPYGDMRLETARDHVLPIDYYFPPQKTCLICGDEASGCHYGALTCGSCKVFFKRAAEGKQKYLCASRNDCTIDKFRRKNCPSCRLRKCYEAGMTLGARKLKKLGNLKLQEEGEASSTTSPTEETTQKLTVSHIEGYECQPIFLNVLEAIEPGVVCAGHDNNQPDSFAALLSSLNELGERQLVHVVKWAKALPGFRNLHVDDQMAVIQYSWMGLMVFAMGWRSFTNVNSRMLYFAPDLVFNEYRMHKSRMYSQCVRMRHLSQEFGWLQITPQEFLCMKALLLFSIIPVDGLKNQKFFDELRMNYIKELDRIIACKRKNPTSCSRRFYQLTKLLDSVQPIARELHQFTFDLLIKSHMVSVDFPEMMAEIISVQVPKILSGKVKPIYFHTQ
Nature of the test: Binding affinity against human androgen receptor (hAR) in competitive binding assay; NB means No binding.

The target in test [2] is T1, Androgen receptor. Nature of the test: Binding affinity against human androgen receptor (hAR) in competitive binding assay.

For orientation: Ki means a dissociation constant, usually derived from enzyme kinetics or from competition with a known ligand. A higher Ki goes with lower affinity. Turning to `C[C@@]1(C(=O)Nc2ccc([N+](=O)[O-])c(C(F)(F)F)c2)CO1`, the Ki result in test [1] is “Not Active”.
For `C[C@](O)(CBr)C(=O)Nc1ccc(N)c(C(F)(F)F)c1`, in test [2], the affinity, expressed as Ki, was 80.9 nM.
